Experimental data published in patent US20140148493A1, “Agricultural and Horticultural Insecticide Composition and Method for Using the Same” (NIHON NOHYAKU CO., LTD., priority 2011, published 2014).

Assays:
Format in all cases: in vivo
[1] = test system: Plutella xylostella; assay: Field test of insecticidal effect on Plutella xylostella (foliar application, Chinese kale); conditions: flubendiamide 11.3 and/or tolfenpyrad 60 g a.i./ha; for Control effect (%) 4DAT5 / Number of larvae per plant 4DAT5: 4 days after the 5th treatment; for Number of larvae per plant 4DAT5 / Number of larvae per plant 4DAT6: 4-day intervals, Chinese kale field; for Control effect (%) 4DAT6 / Number of larvae per plant 4DAT6: 4 days after the 6th treatment
Protocol: (§1) In an experimental Chinese kale (Brassica oleracea var. acephala) field (sized 4 m×5 m and planted with 800 plants per plot), foliar application was conducted with a water-diluted agrochemical solution (an amount equivalent to 750 L/ha) containing a predetermined dose of a flubendiamide 20% water-dispersible granule and/or a predetermined dose of a tolfenpyrad 15% emulsifiable concentrate at 4-day intervals, 8 times in total. In plots of Plutella xylostella or Spodoptera litura, 20 plants per plot were chosen at random, the number of surviving larvae was measured before the agrochemical treatment, at 4 days after the 5th agrochemical treatment and at 4 days after the 6th agrochemical treatment. With reference to the number of larvae before the agrochemical treatment, the control effect was calculated according to the formula shown below. In addition, the expected value for the control effect of the mixed use was calculated according to Colby's equation shown below. […] As for plots of Spodoptera exigua, the calculation was performed based on the measurements at 4 days after the 7th agrochemical treatment and at 4 days after the 8th agrochemical treatment.
(§2) Control effect=100−{(Ta×Cb)/(Tb×Ca)}×100
(§3) Ta=the number of larvae after the agrochemical treatment in a treatment plot
(§4) Tb=the number of larvae before the agrochemical treatment in a treatment plot
(§5) Ca=the number of larvae after the agrochemical treatment in a non-treatment plot
(§6) Cb=the number of larvae before the agrochemical treatment in a non-treatment plot
(§7) E(expected value)=(X+Y)−(X−Y/100)
(§8) X=the control effect of flubendiamide alone
(§9) Y=the control effect of tolfenpyrad alone
(§10) In each table, 4DAT5, 4DAT6, 4DAT7 and 4DAT8 are as defined below, and the a. i. stands for active ingredient.
(§11) 4DAT5: the measurement at 4 days after the 5th agrochemical treatment
(§12) 4DAT6 the measurement at 4 days after the 6th agrochemical treatment

[2] = test system: Spodoptera exigua; assay: Field test of insecticidal effect on Spodoptera exigua (foliar application, Chinese kale); conditions: flubendiamide 11.3 and/or tolfenpyrad 60 g a.i./ha; for Control effect (%) 4DAT7 / Number of larvae per plant 4DAT7: 4 days after the 7th treatment; for Number of larvae per plant 4DAT7 / Number of larvae per plant 4DAT8: 4-day intervals, Chinese kale field; for Control effect (%) 4DAT8 / Number of larvae per plant 4DAT8: 4 days after the 8th treatment
Protocol: as §1, §2, §3, §4, §5, §6, §7, §8, §9, §10
4DAT7 the measurement at 4 days after the 7th agrochemical treatment
4DAT8 the measurement at 4 days after the 8th agrochemical treatment

[3] = test system: Spodoptera litura; assay: Field test of insecticidal effect on Spodoptera litura (foliar application, Chinese kale); conditions: flubendiamide 11.3 and/or tolfenpyrad 60 g a.i./ha; for Control effect (%) 4DAT5 / Number of larvae per plant 4DAT5: 4 days after the 5th treatment; for Number of larvae per plant 4DAT5 / Number of larvae per plant 4DAT6: 4-day intervals, Chinese kale field; for Control effect (%) 4DAT6 / Number of larvae per plant 4DAT6: 4 days after the 6th treatment
Protocol: as §1, §2, §3, §4, §5, §6, §7, §8, §9, §10, §11, §12

Row | SMILES | Control effect (%) 4DAT5 [1] | Number of larvae per plant 4DAT5 [1] | Control effect (%) 4DAT6 [1] | Number of larvae per plant 4DAT6 [1] | Control effect (%) 4DAT7 [2] | Number of larvae per plant 4DAT7 [2] | Control effect (%) 4DAT8 [2] | Number of larvae per plant 4DAT8 [2] | Control effect (%) 4DAT5 [3] | Number of larvae per plant 4DAT5 [3] | Control effect (%) 4DAT6 [3] | Number of larvae per plant 4DAT6 [3]
1 | Cc1cc(C(F)(C(F)(F)F)C(F)(F)F)ccc1NC(=O)c1cccc(I)c1C(=O)NC(C)(C)CS(C)(=O)=O [Flubendiamide, 3-iodo-N′-(2-mesyl-1,1-dimethylethyl)-N-{4-[1,2,2,2-tetrafluoro-1-(trifluoromethyl)ethyl]-o-tolyl}phthalamide] | 53.5% | 0.24 | 70.0% | 0.13 | 37.6% | 0.03 | 62.2% | 0.04 | 3.9% | 0.43 | 37.8% | 0.31
2 | CCc1nn(C)c(C(=O)NCc2ccc(Oc3ccc(C)cc3)cc2)c1Cl [Tolfenpyrad, 4-chloro-3-ethyl-1-methyl-N-[4-(p-tolyloxy)benzyl]pyrazole-5-carboxamide] | 29.4% | 0.38 | 58.0% | 0.19 | 0% | 0.06 | 0% | 0.13 | 0% | 0.25 | 0% | 0.53
